Read-outs that look alike come from different tables or passages of the source.

Data set [1] concerns green peach aphid (Myzus persicae). Kind of data set: Myzus persicae spray test (Chinese cabbage leaf discs). The class given is in vivo. As to conditions: foliar, 144 h, read-out: efficacy in %. As to the method:
Myzus persicae—Spray Test
Solvent: • 78 parts by weight of acetone • 1.5 parts by weight of dimethylformamide
(§1) Emulsifier: alkylaryl polyglycol ether
(§2) To produce a suitable preparation of active compound, 1 part by weight of active compound is dissolved using the specified parts by weight of solvent and made up with water containing an emulsifier concentration of 1000 ppm until the desired concentration is attained. To produce further test concentrations, the formulation is diluted with emulsifier-containing water.
Discs of Chinese cabbage leaves (Brassica pekinensis) infested by all stages of the green peach aphid (Myzus persicae) are sprayed with an active compound formulation of the desired concentration.
After 6 days, the efficacy in % is determined. 100% means that all the aphids have been killed; 0% means that no aphids have been killed.

The test system of data set [2] is larvae of the mustard beetle (Phaedon cochleariae). Kind of data set: Phaedon cochleariae spray test. The class given is in vivo. As to conditions: application rate 500 g/ha; after 7 days; 100% = all beetle larvae killed. As to the method:
Phaedon cochleariae—Spray Test
Solvent: • 78.0 parts by weight of acetone • 1.5 parts by weight of dimethylformamide
as §1, §2
Discs of Chinese cabbage leaves (Brassica pekinensis) are sprayed with an active compound preparation of the desired concentration and, after drying, populated with larvae of the mustard beetle (Phaedon cochleariae).
After 7 days, the efficacy in % is determined. 100% means that all the beetle larvae have been killed; 0% means that no beetle larvae have been killed.

For data set [3], the system named is nematode larvae (Cooperia curticei). Kind of data set: Cooperia curticei test. As to conditions: application rate 20 ppm; after 5 days; 100% = all larvae killed. The data set is classed as in vivo. As to the method: (§3) Solvent: dimethyl sulphoxide
(§4) To produce a suitable preparation of active compound, 10 mg of active compound are mixed with 0.5 ml of dimethyl sulfoxide and the concentrate is diluted with “Ringer's solution” to the desired concentration.
Vessels containing the active compound preparation of the desired concentration are populated with about 40 nematode larvae (Cooperia curticei).
(§5) After 5 days, the kill in % is determined. 100% means that all the larvae have been killed; 0% means that none of the larvae have been killed.

In data set [4] the test system is larvae of the red stomach worm (Haemonchus contortus). As to the kind of experiment: Haemonchus contortus test. The class given is in vivo. As to conditions: application rate 20 ppm; after 5 days; 100% = all larvae killed. As to the method: Haemonchus contortus—Test
as §3, §4
Vessels containing the active compound preparation of the desired concentration are populated with about 40 larvae of the red stomach worm (Haemonchus contortus).
as §5

Data set [5] is described as follows: log P by HPLC on reversed-phase columns (OECD Guideline 117), [a] acidic pH 2.7, [b] neutral pH 7.8. The class given is physicochemical. The conditions noted are these: reversed-phase (C18) HPLC column. As to the method:
The log P values were determined in accordance with OECD Guideline 117 (EC Directive 92/69/EEC) by HPLC (high-performance liquid chromatography) using reversed-phase (RP) columns (C18), by the following methods:
[a] The LC-MS determination in the acidic range is carried out at pH 2.7 with 0.1% aqueous formic acid and acetonitrile (contains 0.1% formic acid) as eluents; linear gradient from 10% acetonitrile to 95% acetonitrile.
[b] LC-MS determination in the neutral range is effected at pH 7.8 with 0.001 molar aqueous ammonium hydrogencarbonate solution and acetonitrile as eluents; linear gradient from 10% acetonitrile to 95% acetonitrile.
Calibration is carried out using unbranched alkan-2-ones (having 3 to 16 carbon atoms) with known log P values (log P values determined on the basis of the retention times by linear interpolation between two successive alkanones).

The test system of data set [6] is southern root-knot nematode (Meloidogyne incognita). As to the kind of experiment: Meloidogyne incognita test. The class given is in vivo. As to conditions: application rate 20 ppm; after 14 days; lettuce; 100% = no galls found. As to the method:
Meloidogyne incognita—Test
Solvent: 125.0 parts by weight of acetone
To produce a suitable active compound preparation, 1 part by weight of active compound is mixed with the stated amount of solvent and the concentrate is diluted with water to the desired concentration.
Vessels are filled with sand, active compound solution, an egg/larvae suspension of the southern root-knot nematode (Meloidogyne incognita) and lettuce seeds. The lettuce seeds germinate and the plants develop. The galls develop on the roots.
After 14 days, the nematicidal efficacy in % is determined by the formation of galls. 100% means that no galls were found; 0% means that the number of galls on the treated plants corresponds to the untreated control.

Where [7] appears, read: acidic pH 2.7, read-out: logP[a].
[8] abbreviates: neutral pH 7.8, read-out: logP[b].

Regarding `Fc1cncc(-n2cc3cc(C(F)(F)F)ccc3n2)c1` [Example 16], the pest or weed control at 500 g/ha in data set [1] worked out at 100%. The compound further came in with an efficacy in % in data set [2] of 100%.

As to `Clc1ccc(-c2ccc3nn(-c4cccnc4)cc3c2)nc1` [Example 67], the pest or weed control at 500 g/ha in data set [1] is 100%. For the same compound, the “efficacy (kill in %)” value in data set [3] and in data set [4] was 80% throughout. The chromatographic logP in data set [5] (setting [7]) is 2.8; in data set [5] (setting [8]), 2.78.

Regarding `c1cncc(-c2ccc3nn(-c4cccnc4)cc3c2)c1` [Example 57, 2,5-Bis(3-pyridyl)indazole], in data set [1], the pest or weed control at 500 g/ha turned out to be 90%. Also, the “efficacy (kill in %)” value in data set [3] was found to be 80%. In addition, the chromatographic logP in data set [5] (setting [7]) was 0.88; in data set [5] (setting [8]) it was 1.71.

As for `FC(F)(F)Cn1cc(-c2ccc3nn(-c4cccnc4)cc3c2)cn1` [Example 99, 2-(Pyridin-3-yl)-5-[1-(2,2,2-trifluoroethyl)-1H-pyrazol-4-yl]-2H-indazole], in data set [1], the pest or weed control at 500 g/ha was 90%. Besides, the “nematicidal efficacy in % (formation of galls)” value in data set [6] came out at 90%. The chromatographic logP in data set [5] (setting [7]) and in data set [5] (setting [8]) was 2.12 throughout.

Turning to `Fc1cccc(-c2ccc3nn(-c4cccnc4)cc3c2)n1` [Example 104], the pest or weed control at 500 g/ha in data set [1] amounted to 90%. Also, the “nematicidal efficacy in % (formation of galls)” value in data set [6] worked out at 90%. Further, the chromatographic logP in data set [5] (setting [7]) turned out to be 2.4; in data set [5] (setting [8]) it was 2.44.

For `Cc1cc(F)c(NC(=O)c2ccc3nn(-c4cccnc4)cc3c2)cc1[S+]([O-])CC(F)(F)F` (stereo not shown) [Example 96], the pest or weed control at 500 g/ha in data set [1] amounted to 100%. For the same compound, the figures for the chromatographic logP in data set [5] (setting [7]) and in data set [5] (setting [8]) were 2.19 and 2.14, respectively.

Turning to `Cc1cc(C)c([S+]([O-])CC(F)(F)F)cc1-c1ccc2nn(-c3cccnc3)cc2c1` (stereo not shown) [Example 54, 5-[2,4-Dimethyl-5-(2,2,2-trifluoroethylsulphinyl)phenyl]-2-(3-pyridyl)indazole], in data set [1], the pest or weed control at 500 g/ha stood at 90%. In addition, the chromatographic logP in data set [5] (setting [7]) stood at 2.99; in data set [5] (setting [8]) it was 2.92.

Regarding `CCSc1cccc(-c2ccc3nn(-c4cccnc4)cc3c2)n1` [Example 79], in data set [1], the pest or weed control at 500 g/ha amounted to 100%. Further, the chromatographic logP in data set [5] (setting [7]) and in data set [5] (setting [8]) was 3.57 each time.

Take `O=C(c1ccc2nn(-c3cccnc3)cc2c1)N1CCSCC1` [Example 92]: the pest or weed control at 500 g/ha in data set [1] came to 100%. Moreover, the chromatographic logP is 1.5 in data set [5] (setting [7]) and 1.58 in data set [5] (setting [8]).

`CS(=O)(=O)CCNC(=O)c1ccc2nn(-c3cccnc3)cc2c1` [Example 95]: in data set [1], the pest or weed control at 500 g/ha was determined as 90%. The results for the chromatographic logP in data set [5] (setting [7]) and in data set [5] (setting [8]) were 0.9 and 0.95, respectively.

With `Clc1ccnc(-c2ccc3nn(-c4cccnc4)cc3c2)c1` [Example 69], the pest or weed control at 500 g/ha in data set [1] was 100%. In addition, the chromatographic logP came to 2.62 in data set [5] (setting [7]) and 2.66 in data set [5] (setting [8]).

In the case of `FC(F)(F)c1cnn(-c2ccc3nn(-c4cccnc4)cc3c2)c1` [Example 55, 2-(3-Pyridyl)-5-[4-(trifluoromethyl)pyrazol-1-yl]indazole], the pest or weed control at 500 g/ha in data set [1] is 90%. The results for the chromatographic logP in data set [5] (setting [7]) and in data set [5] (setting [8]) were 2.77 and 2.74, respectively.

`Clc1cccnc1-c1ccc2nn(-c3cccnc3)cc2c1` [Example 68]: in data set [1], the pest or weed control at 500 g/ha is 100%. Further, the chromatographic logP was 2.17 in data set [5] (setting [7]) and 2.21 in data set [5] (setting [8]).

Consider `Clc1cccc(-c2ccc3nn(-c4cccnc4)cc3c2)n1` [Example 61], for which the pest or weed control at 500 g/ha in data set [1] stood at 100%. Moreover, the figures for the chromatographic logP in data set [5] (setting [7]) and in data set [5] (setting [8]) were 2.79 and 2.8, respectively.

Turning to `Cc1cc(F)c(-c2ccc3nn(-c4cccnc4)cc3c2)cc1SCC(F)(F)F` [Example 49, 5-[2-Fluoro-4-methyl-5-(2,2,2-trifluoroethylsulphanyl)phenyl]-2-(3-pyridyl)indazole], in data set [1], the pest or weed control at 500 g/ha is 90%. In addition, the figures for the chromatographic logP in data set [5] (setting [7]) and in data set [5] (setting [8]) were 4.23 and 4.11, respectively.

`CSCn1cc(-c2ccc3nn(-c4cccnc4)cc3c2)cn1` [Example 63]: the pest or weed control at 500 g/ha in data set [1] was found to be 90%. For the same compound, the chromatographic logP in data set [5] (setting [7]) is 2.02.

As to `CSCCNC(=O)c1ccc2nn(-c3cccnc3)cc2c1` [Example 85], in data set [1], the pest or weed control at 500 g/ha was found to be 90%. Also, the chromatographic logP in data set [5] (setting [7]) was 1.45; in data set [5] (setting [8]), 1.5.

As for `Cc1ccc(-c2ccc3nn(-c4cccnc4)cc3c2)nc1` [Example 65], the pest or weed control at 500 g/ha in data set [1] was 90%. For the same compound, the “efficacy (kill in %)” value in data set [3] is listed as 90%; in data set [4], 80%. Moreover, the chromatographic logP in data set [5] (setting [7]) was determined as 1.23; in data set [5] (setting [8]) it was 2.25.

In the case of `CCSc1cccnc1-c1ccc2nn(-c3cccnc3)cc2c1` [Example 77], the pest or weed control at 500 g/ha in data set [1] is 90%. Besides, the chromatographic logP in data set [5] (setting [7]) turned out to be 2.53; in data set [5] (setting [8]) it was 1.93.

As for `FC(F)(F)c1ccn(-c2ccc3nn(-c4cccnc4)cc3c2)n1` [Example 56, 2-(3-Pyridyl)-5-[3-(trifluoromethyl)pyrazol-1-yl]indazole], the pest or weed control at 500 g/ha in data set [1] was determined as 90%. The “efficacy (kill in %)” value in data set [3] worked out at 90%. In addition, the results for the chromatographic logP in data set [5] (setting [7]) and in data set [5] (setting [8]) were 2.83 and 2.79, respectively.

`CCn1cc(-c2ccc3nn(-c4cccnc4)cc3c2)cn1` [Example 73]: the pest or weed control at 500 g/ha in data set [1] was determined as 90%. For the same compound, the chromatographic logP in data set [5] (setting [7]) was found to be 1.81; in data set [5] (setting [8]), 1.82.

In the case of `Cc1cc(C)c(SCC(F)(F)F)cc1NC(=O)c1ccc2nn(-c3cccnc3)cc2c1` [Example 81, N-{2,4-Dimethyl-5-[(2,2,2-trifluoroethyl)sulphanyl]phenyl}-2-(pyridin-3-yl)-2H-indazole-5-carboxamide], the pest or weed control at 500 g/ha in data set [1] was 90%. Besides, the figures for the chromatographic logP in data set [5] (setting [7]) and in data set [5] (setting [8]) were 3.15 and 3.12, respectively.

As for `Cc1ccnc(-c2ccc3nn(-c4cccnc4)cc3c2)c1` [Example 66], in data set [1], the pest or weed control at 500 g/ha was 90%. Further, the figures for the chromatographic logP in data set [5] (setting [7]) and in data set [5] (setting [8]) were 0.97 and 2.2, respectively.

For the compound `Cc1ccc(-c2ccc3nn(-c4cccnc4)cc3c2)cc1SCC(F)(F)F` [Example 50, 5-[4-Methyl-3-(2,2,2-trifluoroethylsulphanyl)phenyl]-2-(3-pyridyl)indazole], the pest or weed control at 500 g/ha in data set [1] is 100%. In addition, the chromatographic logP came to 4.12 in data set [5] (setting [7]) and 4.07 in data set [5] (setting [8]).

With `CSCn1ccc(-c2ccc3nn(-c4cccnc4)cc3c2)n1` [Example 62], in data set [1], the pest or weed control at 500 g/ha was determined as 90%. Further, the chromatographic logP was 1.97 in data set [5] (setting [7]) and 2.11 in data set [5] (setting [8]).

As for `O=C(c1ccc2nn(-c3cccnc3)cc2c1)N1CCOCC1` [Example 87], the pest or weed control at 500 g/ha in data set [1] is 100%. Besides, the chromatographic logP amounted to 1.14 in data set [5] (setting [7]) and 1.16 in data set [5] (setting [8]).

Take `CCSc1ccnc(-c2ccc3nn(-c4cccnc4)cc3c2)c1` [Example 76, 5-[4-(Ethylsulphanyl)pyridin-2-yl]-2-(pyridin-3-yl)-2H-indazole]: the pest or weed control at 500 g/ha in data set [1] came out at 90%. Moreover, the “efficacy (kill in %)” value in data set [3] amounted to 80%. In addition, the chromatographic logP in data set [5] (setting [7]) is 1.62; in data set [5] (setting [8]), 2.84.

Take `CCN(CC)C(=O)c1ccc2nn(-c3cccnc3)cc2c1` [Example 89]: the pest or weed control at 500 g/ha in data set [1] is 100%. Also, the chromatographic logP in data set [5] (setting [7]) amounted to 1.63; in data set [5] (setting [8]), 1.65.
